# Patent publication US6670364B2, “Antagonists of MCP-1 function and methods of use thereof” (Telik, Inc., priority 2001, dated 2003)
# Assays:
# hMCP-1 [1] = biological target: T1, hMCP-1 (Homo sapiens, UniProt P13500); experiment: Inhibition of MCP-1-induced chemotaxis (96-well chamber, Example 16); assay type: cell-based; details: THP-1 cells, 12.5 nM hMCP-1, 2 h, 96-well microchemotaxis chamber
# Description: A 96-well microchemotaxis chamber with a 5 μm-pore size, PVP-coated polycarbonate filter membrane (Neuro Probe Inc., Cabin John, Md.) was used for testing. Compounds were prepared as 10 mM stock solution in DMSO. THP-1 cells (2×10^6 cells/mL) were labeled with 5 μM Calcein AM containing 0.1% F127 (Molecular Probe, Eugene, Oreg.) at 37° C. for 30 min, and then pretreated with compound at room temperature for an additional 30 min. […] The filter membrane was placed over the lower chamber, followed by a silicon gasket and the upper chamber. The pretreated THP-1 cells (4×10^5 cells/50 μL of RPMI1640 medium per well) were added to the upper chamber and incubated in 5% CO2 at 37° C. for 2 h. The migrated cells were determined with a fluorescent plate reader (LJL BioSystems, Sunnyvale, Calif.).
# Target sequence in this assay (P13500 24-99): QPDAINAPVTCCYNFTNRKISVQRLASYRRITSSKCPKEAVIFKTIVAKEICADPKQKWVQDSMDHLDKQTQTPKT
# Target sequence in this assay (P41597 whole entry partner): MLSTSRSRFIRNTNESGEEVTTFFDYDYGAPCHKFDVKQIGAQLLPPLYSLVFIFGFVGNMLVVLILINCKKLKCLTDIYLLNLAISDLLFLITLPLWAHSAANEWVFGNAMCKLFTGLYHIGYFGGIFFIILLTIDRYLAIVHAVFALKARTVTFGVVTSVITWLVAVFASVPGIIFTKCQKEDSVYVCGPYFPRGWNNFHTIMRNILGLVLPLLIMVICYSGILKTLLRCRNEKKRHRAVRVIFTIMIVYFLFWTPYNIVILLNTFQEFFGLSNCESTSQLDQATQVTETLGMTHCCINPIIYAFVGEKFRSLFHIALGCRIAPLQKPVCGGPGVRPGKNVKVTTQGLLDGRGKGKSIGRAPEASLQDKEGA
# male Lewis rats = experiment: Adjuvant arthritis model in rat (Example 22); assay type: in vivo; details: 10 mg/kg p.o. once a day
# Description: Adjuvant arthritis was induced in male Lewis rats as follows. Complete Freund's adjuvant (CFA) was mixed with PBS and 0.1 ml of the resulting emulsion was injected subcutaneously into the foot pad of the right hind paw (day=0). The test compound was administered p.o. at day 0 and then once a day for 26 days. Paw swelling was measured by the increased thickness of the foot pad.
# male Wistar rats [2] = experiment: Anti-Thy-1 antibody induced nephritis model, per os (Example 26); assay type: in vivo, rat
# Description: Anti-Thy-1 nephritis was induced by intravenous injection of anti-Thy-1-antibody to male Wistar rats. The test compound was per os administered 2 h before, immediately after, and 5 h after the anti-Thy-1 antibody treatment, and then twice a day for the following 2 days. Seven days after the anti-Thy-1 antibody treatment, the rats were sacrificed. The amount of urinary protein was determined with the DC protein assay kit (Bio-Rad, Hercules, Calif.).
# hMCP-1 [3] = biological target: T1, hMCP-1; experiment: Inhibition of MCP-1-induced chemotaxis (48-well chamber, Example 21); assay type: cell-based; set-up: purchased PeproTech; details: THP-1 cells, 2.5 nM hMCP-1, 48-well chamber, 2 hr
# Description: A 48-well microchemotaxis chamber with a 5 μm-pore size, PVP-coated polycarbonate filter membrane (Neuro Probe Inc., Cabin John, Md.) was used for testing. Compounds were prepared as 10 mM stock solution in DMSO. THP-1 cells were washed with RPMI 1640 medium supplemented with 0.5% BSA and 25 mM HEPES, pH 7.4, and suspended at a density of 4×10^6 cells/mL in the same medium. A 150 μL aliquot of this suspension was treated with an equal volume of test compound solution and the mixture incubated at 37° C. for 15 min. The lower chamber was loaded with 26 μL of a 2.5 nM solution of hMCP-1 (PeproTech) in medium. The filter membrane was placed over the lower chamber, followed by a silicon rubber gasket and the upper chamber. A 50 μL aliquot of the THP-1 cell suspension containing the test compound was added to the upper chamber and the assembly incubated in a 5% CO2 atmosphere at 37+ C. for 2 hr. The chamber was then disassembled and the cells remaining on the upper surface of the filter were scrapped off with a rubber scrapper. The filter was fixed with methanol, stained with Diff-Quik solution, and mounted on a slide glass. The cells that had migrated across the filter onto the lower surface were then counted by microscopic observation.
# Target sequence in this assay (P13500 24-99): as the sequence (P13500 24-99) above
# ICR male mice = experiment: Thioglycollate-induced inflammation model (Example 17); assay type: in vivo, mouse; details: peritoneal cavity 72 h after thioglycollate; 5 mg/kg, subcutaneous
# Description: 3% Brewer's thioglycollate broth (Difco, Detroit, Mich.) was injected into the peritoneal cavity of ICR male mice, followed by subcutaneous administration of the test compound. The same dose of test compound was again administered immediately after the broth injection and 3 h later. After 72 h, the number of total elicited cells and MOMA2-positive cells in the peritoneal cavity was analyzed using an EPICS XL Beckman Coulter.
# male Wistar rats [4] = experiment: Anti-Thy-1 antibody-induced nephritis model, s.c. (Example 19); assay type: in vivo; details: rat; for ED-1 positive cells/glomeruli (mean ± SE): day 7
# Description: The efficacy of the compounds of the present invention was also evaluated in an animal model of nephritis. This model very closely simulates the conditions found in human mesangial proliferative glomerulonephritis.
# Anti-Thy-1 nephritis was induced by intravenous injection of anti-Thy-1-antibody to male Wistar rats. The test compound was subcutaneously administered 2 h before, immediately after, and 5 h after the anti-Thy-1 antibody treatment, and then twice a day for the following 2 days. Anti-MCP-1 antibody was intraperitoneally injected once a day for 3 days. Seven days after the anti-Thy-1 antibody treatment, the rats were sacrificed. The kidneys were perfused with 10% formaldehyde in PBS, surgically removed, and immersed in 10% formaldehyde. The kidneys were then embedded in paraffin for glomerular histopathology or in OCT compound (Miles Inc., Elkhart, Ind.) in liquid nitrogen after immersion in 30% sucrose overnight. Immunohistochemical staining was performed with a mouse anti-rat ED-1 monoclonal antibody. Briefly, 5 μm renal sections were prepared and endogenous peroxidase blocked with 0.3% hydrogen peroxide. The sections were then blocked with Protein Block (DAKO, Japan) and stained with anti-ED-1 antibody for 45 min. The ED-1 antigen was visualized by peroxidase-labeled anti-mouse IgG and diaminobenzidine. The amount of urinary protein was determined with the DC protein assay kit (Bio-Rad, Hercules, Calif.). The effect of a representative test compound on the level of urinary protein excretion and the infiltration of ED-1 positive cells into the glomeruli is shown in Table 10.
# apoE-deficient mice = experiment: Apolipoprotein E-deficient mouse model of atherosclerosis (Example 20); assay type: in vivo
# Description: Apolipoprotein E (apoE) is a component of several plasma lipoproteins, including chylomicrons, VLDL, and HDL. Receptor-mediated catabolism of these lipoprotein particles is mediated through the interaction of apoE with the LDL receptor (LDLR) or with LDLR-related protein (LRP). […] The efficacy of the compounds of the present invention was also evaluated using this animal model.
# Male, 4 week-old apoE-deficient mice were fed on high-fat diet (15% fat, 1.25% cholesterol). The test compound was administered as food admixture for 8 weeks. At 12 week-old, the mice were fasted for 4 hours and then sacrificed under ether anesthesia. Blood was collected in the presence of heparin, and the hearts were perfused in situ with PBS (pH 7.4), followed by 4% paraformaldehyde for 5 min.
# To determine cross-sectional lesion areas, the hearts were embedded in OCT compound and sectioned at 10 μm using cryostat. The sections were stained with oil red O. Each section of the aortic valve was evaluated for oil red O staining by capturing images directly from a RGB camera attached to a light microscope; image analysis was performed with the IPAP-WIN software (Sumika Tekuno, Japan). Five sections were examined for each animal, and the sum of the lesion areas was calculated and expressed as the percent of the total cross-sectional wall area. Total cholesterol was determined with a Determiner assay kit (Kyowa medex, Japan).
# female Lewis rats [5] = experiment: Collagen-induced arthritis model in rat, i.p. (Example 23); assay type: in vivo
# Description: (§1) Collagen-induced arthritis was induced in female Lewis rats as follows. Rats were injected subcutaneously with the emulsion of bovine collagen type 11 (3.3 mg/kg at day 0 and 1.67 mg/kg at day 7) and complete Freund's adjuvant (CFA) at the base of the tail at day 0 and immunized additionally at day 7. The test compounds were administered i.p. at day 0 and then once a day for 18 days or p.o. (methotrexate) at day 0 and then 3 times a week until day 18. Paw swelling was measured by the increased volume of the legs using a plethysmometer.
# female Lewis rats [6] = experiment: Collagen-induced arthritis model in rat, p.o. (Example 24); assay type: in vivo; details: 1 mg/kg p.o. 3 times a week until day 21 (positive control)
# Description: as §1, with “p.o.” for “i.p.”, “twice” for “once”, “21” for “18”, “or” for “or p.o. (methotrexate) at day 0 and then”, “21 was also administered p.o. from day 13 to day 21 in another group.” for “18.”
smiles,measurement,setting,value
"Cc1nn(C)c2ncc(C(=O)NC(=O)Nc3ccc(Cl)c(Cl)c3)c(Cl)c12 [Compound 37, N-{[(3,4-dichlorophenyl)amino]carbonyl}(4-chloro-1,3-Dimethylpyrazolo[5,4-b]pyridin-5-yl)carboxamide]",IC50,hMCP-1 [1],12.7 µM
"Cc1nn(C)c2ncc(C(=O)NC(=O)Nc3ccc(F)c(C(F)(F)F)c3)c(N3CCN(C)CC3)c12.Cl [Compound 85, [1,3-Dimethyl-4-(4-methylpiperazinyl)pyrazolo[5,4-b]pyridin-5-yl]-N-({[4-fluoro-3-(trifluoromethyl)phenyl]amino}carbonyl)carboxamide hydrochloride]",Percent Swelling (foot pad),male Lewis rats; day 11 after immunization,39%
same,Percent Swelling (foot pad),male Lewis rats; day 14 after immunization,40%
same,Percent Swelling (foot pad),male Lewis rats; day 17 after immunization,34%
same,Percent Swelling (foot pad),male Lewis rats; day 21 after immunization,30%
same,Percent Swelling (foot pad),male Lewis rats; day 22 after immunization,26%
same,Percent Swelling (foot pad),male Lewis rats; day 26 after immunization,27%
same,Urinary Protein (mg/mg creatinine),male Wistar rats [2]; 0.1 mg/kg per os,33.4 ± 5.1 mg/mg creatinine
same,Urinary Protein (mg/mg creatinine),male Wistar rats [2]; 1 mg/kg per os,32.4 ± 5.9 mg/mg creatinine
same,Urinary Protein (mg/mg creatinine),male Wistar rats [2]; 10 mg/kg per os,23.5 ± 7.2 mg/mg creatinine
same,IC50,hMCP-1 [3],0.09 µM
"Cc1nn(C)c2ncc(C(=O)NC(=O)Nc3ccc(F)c(C(F)(F)F)c3)cc12 [Compound 11, (1,3-Dimethylpyrazolo[5,4-b]pyridin-5-yl)-N-({[4-fluoro-3-(trifluoromethyl)phenyl]amino}carbonyl)carboxamide]",MOMA2-positive Cells (× 10^6),ICR male mice,14.3 ± 1.2 × 10^6
same,Total Cells (× 10^6),ICR male mice,19.7 ± 1.6 × 10^6
same,Urinary Protein,male Wistar rats [4]; 0.1 mg/kg s.c.,182.2 ± 28.0 mg/day
same,ED-1 positive cells/glomeruli (mean ± SE),male Wistar rats [4]; 0.1 mg/kg s.c.,5.3 ± 0.7 cells/glomeruli
same,Urinary Protein,male Wistar rats [4]; 2 mg/kg s.c.,117.4 ± 26.3 mg/day
same,ED-1 positive cells/glomeruli (mean ± SE),male Wistar rats [4]; 2 mg/kg s.c.,2.3 ± 0.6 cells/glomeruli
same,% Atherosclerotic Lesion (mean ± SD),"apoE-deficient mice; 10 mg/kg as food admixture for 8 weeks, high-fat diet, aortic valve sections, oil red O",18.72 ± 5.27 %
same,body weight vs control,"apoE-deficient mice; apoE-deficient mice, 8 weeks treatment, data not shown",no significant differences
same,percent of atherosclerotic lesion area (in words),"apoE-deficient mice; vs control group, statistically significant",reduced
"CN(Cc1cnc2nc(N)nc(N)c2n1)c1ccc(C(=O)N[C@@H](CCC(=O)O)C(=O)O)cc1 [methotrexate, reference compound]",Percent Swelling day 18,female Lewis rats [5]; 1 mg/kg p.o. 3 times a week until day 18,8.9 ± 1.2 %
same,Percent Swelling day 14,female Lewis rats [6],−0.4 ± 1.1 %
same,Percent Swelling day 21,female Lewis rats [6],−0.7 ± 1.0 %
Cc1nn(C)c2ncc(C(=O)NC(=O)Nc3ccc(C(=O)N4CCOCC4)c(Cl)c3)cc12 [Compound 141],Percent Swelling day 18,female Lewis rats [5]; 10 mg/kg i.p. once a day for 18 days,12.3 ± 1.5 %
